According to US12023319B2, “Carboxylic acid aromatic amides” (priority 2016, dated 2024):

The compounds below were run against T1, human Bradykinin B1 receptor (Homo sapiens, UniProt P46663) (assay: Calcium flux assay (FLIPR), CHO-K1 cells expressing human Bradykinin B1 receptor, absence of 0.1% BSA (hB1 free IC50)). Conditions: absence of 0.1% BSA in assay buffer.
T1 construct: host or cells: CHO-K1
T1 sequence (P46663 1-353): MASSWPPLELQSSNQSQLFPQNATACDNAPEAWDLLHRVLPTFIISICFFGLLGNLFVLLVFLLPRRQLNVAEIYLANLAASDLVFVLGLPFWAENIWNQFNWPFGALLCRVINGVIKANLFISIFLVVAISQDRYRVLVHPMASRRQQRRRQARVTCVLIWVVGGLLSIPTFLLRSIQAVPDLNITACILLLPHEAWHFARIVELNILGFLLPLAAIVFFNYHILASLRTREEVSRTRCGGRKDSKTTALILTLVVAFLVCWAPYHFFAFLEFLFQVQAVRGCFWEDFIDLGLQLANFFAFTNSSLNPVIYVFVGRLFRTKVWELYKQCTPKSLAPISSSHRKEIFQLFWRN
Format: cell-based
Method: The potency to inhibit the Bradykinin B1 receptor was determined for the Compound Examples of this invention in a cell-based fluorescent calcium-mobilisation assay. The assay measures the ability of Compound Examples to inhibit Bradykinin B1 receptor agonist-induced increase of intracellular free Ca^2+ in the cell line expressing Bradykinin B1 receptor. Specifically, calcium indicator-loaded cells are pre-incubated in the absence or presence of different concentrations of Compound Examples followed by the stimulation with a selective Bradykinin B1 receptor agonist peptide. The change of the intracellular Ca^2+ concentration is monitored with a fluorescent plate reader FLIPR^TETRA® (Molecular Devices).
Calcium Flux Assays (FLIPR) with Cells Expressing Human Bradykinin B1 Receptor (hB1)
CHO-K1 cell line expressing human Bradykinin B1 receptor is purchased from Euroscreen (Gosselies, Belgium, with reference name hB1-D1). The cells are grown in Nutrient Mixture Ham's F12 (Sigma) containing 10% Foetal bovine serum (Sigma) and 400 μg/mL G418 (Sigma), 5 μg/mL puromycin (Sigma).
The effect of BSA on the potency of endothelin receptor antagonists have been described in the prior art (Wu-Wong, J. R. et al. (1997), JPET 281: 791-798). The teaching can be applied in analogy to testing the potency of Bradykinin B1 receptor antagonist in the FLIPR assays.
For the calcium flux assay, 80% confluent cells are detached from the culture vessels with Versene (Gibco), and seeded into 384-well plates (Cell binding Surface; Corning, NY; #3683) at a density of 15,000 cells per well. Cells are seeded in a volume of 50 μL in medium without antibiotics and incubated overnight in a humidified atmosphere with 5% CO2 at 37° C. […] The calcium indicator loaded cells are incubated at 37° C. for 2 hrs. Extracellular dye is then removed and each well is filled with 45 μL of assay buffer. Cell plates are kept in dark until used. Compound examples are assayed at 8 concentrations in triplicate. Serial 10-fold dilutions in 100% DMSO are made at a 100-times higher concentration than the final concentration, and then diluted 1:10 in assay buffer. 5 μL of each diluted compound is added to the well of cell plates (yielding final concentration with 1% DMSO), and incubated for 30 min at 28° C. before the addition of Bradykinin B1 receptor agonist on the FLIPR instrument.
The addition of agonist 20 μl per well to the assay plate is carried out on the FLIPR instrument while continuously monitoring Ca2+-dependent fluorescence at 538 nm. A peptide antagonist Lys-(Des-Arg-Leu)-Bradykinin (Bachem, Brackley) at 20 µM is used to determine the full inhibition as control.
Peak fluorescence is used to determine the response to agonist obtained at each concentration of Compound Examples by the following equation: % Response=100*(RFU(compound)−RFU(control))/(RFU(DMSO)−RFU(control))
RFU means relative fluorescence units.
Control means full inhibition by the peptide antagonist Lys-(Des-Arg-Leu)-Bradykinin at 20 µM.
The response values are plotted against the logarithm of the compound concentrations. The Compound Examples are tested in triplicates per plate and mean values are plotted in Excel XLfit to determine IC50 values, percentage of maximal inhibition and the Hill slopes.

| IC50 | Structure (SMILES) |
| --- | --- |
| 320 nM | CC1CCC(C2(C(=O)Nc3cc(F)c(-c4cnn(C5CCC5)c4)c(C(=O)O)c3)CC2)CC1 (mixture of isomers) [Example 144, 2-(1-Cyclobutyl-1H-pyrazol-4-yl)-3-fluoro-5-({[1-(4-methylcyclohexyl)cyclopropyl]carbonyl}amino)benzoic acid] |
| 690 nM | O=C(O)c1cc(NC(=O)C2(c3cc(F)c(F)cc3F)CC2)ccc1-c1ccc(C(F)(F)F)nc1 [Example 8, 2-[6-(Trifluoromethyl)pyridin-3-yl]-5-({[1-(2,4,5-trifluorophenyl)cyclopropyl]carbonyl}amino)benzoic acid] |
| 3600 nM | O=C(O)c1cc(NC(=O)C2(c3ccc(C(F)(F)F)cc3F)CC2)ccc1-n1ccc(CC(F)(F)F)n1 [Example 15, 5-[({1-[2-Fluoro-4-(trifluoromethyl)phenyl]cyclopropyl}carbonyl)amino]-2-[3-(2,2,2-trifluoroethyl)-1H-pyrazol-1-yl]benzoic acid] |
| 2800 nM | O=C(O)c1cc(NC(=O)C2(c3ccc(C(F)(F)F)cc3F)CC2)ccc1-n1cc(C(F)(F)F)cn1 [Example 16, 5-[({1-[2-Fluoro-4-(trifluoromethyl)phenyl]cyclopropyl}carbonyl)amino]-2-[4-(trifluoromethyl)-1H-pyrazol-1-yl]benzoic acid] |
| 710 nM | CCC(F)(F)c1ccc(-c2ccc(NC(=O)C3(c4ccc(C(F)(F)F)cc4)CC3)cc2C(=O)O)cn1 [Example 21, 2-[6-(1,1-Difluoropropyl)pyridin-3-yl]-5-[({1-[4-(trifluoromethyl)phenyl]cyclopropyl}carbonyl)amino]benzoic acid] |
| 290 nM | CCC(F)(F)c1ccc(-c2ccc(NC(=O)C3(c4ccc(OC(F)(F)F)cc4)CC3)cc2C(=O)O)cn1 [Example 22, 2-[6-(1,1-Difluoropropyl)pyridin-3-yl]-5-[({1-[4-(trifluoromethoxy)phenyl]cyclopropyl}carbonyl)amino]benzoic acid] |
| 2400 nM | CCC(F)(F)c1ccc(-c2ccc(NC(=O)C3(c4ccc(F)cc4F)CC3)cc2C(=O)O)cn1 [Example 23, 5-({[1-(2,4-Difluorophenyl)cyclopropyl]carbonyl}amino)-2-[6-(1,1-difluoropropyl)pyridin-3-yl]benzoic acid] |
| 290 nM | CCC(F)(F)c1ccc(-c2ccc(NC(=O)C3(c4ccc(Cl)cc4F)CC3)cc2C(=O)O)cn1 [Example 24, 5-({[1-(4-Chloro-2-fluorophenyl)cyclopropyl]carbonyl}amino)-2-[6-(1,1-difluoropropyl)pyridin-3-yl]benzoic acid] |
| 410 nM | Cc1ccc(C2(C(=O)Nc3ccc(-c4ccc(C(C)(F)F)nc4)c(C(=O)O)c3)CC2)c(F)c1 [Example 30, 2-[6-(1,1-Difluoroethyl)pyridin-3-yl]-5-({[1-(2-fluoro-4-methylphenyl)cyclopropyl]carbonyl}amino)benzoic acid] |
| 130 nM | CC(F)(F)c1ccc(-c2ccc(NC(=O)C3(c4ccc(C(F)(F)F)cc4F)CC3)cc2C(=O)O)cn1 [Example 31, 2-[6-(1,1-Difluoroethyl)pyridin-3-yl]-5-[({1-[2-fluoro-4-(trifluoromethyl)phenyl]cyclopropyl}carbonyl)amino]benzoic acid] |
| 190 nM | CC(F)(F)c1ccc(-c2ccc(NC(=O)C3(c4ccc(OC(F)(F)F)cc4F)CC3)cc2C(=O)O)cn1 [Example 32, 2-[6-(1,1-Difluoroethyl)pyridin-3-yl]-5-[({1-[2-fluoro-4-(trifluoromethoxy)phenyl]cyclopropyl}carbonyl)amino]benzoic acid] |
| 460 nM | CC(O)c1ccc(-c2ccc(NC(=O)C3(c4ccc(C(F)(F)F)cc4F)CC3)cc2C(=O)O)cn1 (stereo not drawn) [Example 33, 5-[({1-[2-Fluoro-4-(trifluoromethyl)phenyl]cyclopropyl}carbonyl)amino]-2-[6-(1-hydroxyethyl)pyridin-3-yl]benzoic acid] |
| 31 nM | O=C(O)c1cc(NC(=O)C2(c3ccc(C(F)(F)F)cc3F)CC2)ccc1-c1cnn(CC(F)(F)F)c1 [Example 34, 5-[({1-[2-Fluoro-4-(trifluoromethyl)phenyl]cyclopropyl}carbonyl)amino]-2-[1-(2,2,2-trifluoroethyl)-1H-pyrazol-4-yl]benzoic acid] |
| 26 nM | O=C(O)c1cc(NC(=O)C2(c3ccc(Cl)cc3)CC2)cc(F)c1-c1cnn(C2CCC2)c1 [Example 35, 5-({[1-(4-Chlorophenyl)cyclopropyl]carbonyl}amino)-2-(1-cyclobutyl-1H-pyrazol-4-yl)-3-fluorobenzoic acid] |
| 22 nM | O=C(O)c1cc(NC(=O)C2(c3ccc(F)c(F)c3)CC2)cc(F)c1-c1cnn(C2CCC2)c1 [Example 38, 2-(1-Cyclobutyl-1H-pyrazol-4-yl)-5-({[1-(3,4-difluorophenyl)cyclopropyl]carbonyl}amino)-3-fluorobenzoic acid] |
| 55 nM | O=C(O)c1cc(NC(=O)C2(c3ccc(C(F)(F)F)cc3F)CC2)ccc1-c1cn(C2CCC2)nc1F [Example 45, 2-(1-Cyclobutyl-3-fluoro-1H-pyrazol-4-yl)-5-[({1-[2-fluoro-4-(trifluoromethyl)phenyl]cyclopropyl}carbonyl)amino]benzoic acid] |
| 58 nM | O=C(O)c1cc(NC(=O)C2(c3ccc(C(F)(F)F)cc3F)CC2)ccc1-c1cc2cccnc2s1 [Example 46, 5-[({1-[2-Fluoro-4-(trifluoromethyl)phenyl]cyclopropyl}carbonyl)amino]-2-(thieno[2,3-b]pyridin-2-yl)benzoic acid] |
| 230 nM | O=C(O)c1cc(NC(=O)C2(c3ccc(C(F)(F)F)cc3F)CC2)ccc1-c1ccc(Cl)s1 [Example 47, 2-(5-Chloro-2-thienyl)-5-[({1-[2-fluoro-4-(trifluoromethyl)phenyl]cyclopropyl}carbonyl)amino]benzoic acid] |
| 220 nM | O=C(O)c1cc(NC(=O)C2(c3ccc(C(F)(F)F)cc3F)CC2)ccc1-c1ccc(C(F)(F)F)s1 [Example 48, 5-[({1-[2-Fluoro-4-(trifluoromethyl)phenyl]cyclopropyl}carbonyl)amino]-2-[5-(trifluoromethyl)-2-thienyl]benzoic acid] |
| 47 nM | O=C(O)c1cc(NC(=O)C2(c3ccc(Cl)c(F)c3)CC2)ccc1-c1cnn(C2CCC2)c1 [Example 49, 5-({[1-(4-Chloro-3-fluorophenyl)cyclopropyl]carbonyl}amino)-2-(1-cyclobutyl-1H-pyrazol-4-yl)benzoic acid] |
| 62 nM | O=C(O)c1cc(NC(=O)C2(c3ccc(C(F)(F)F)cc3)CC2)ccc1-c1cnn(C2CCC2)c1 [Example 50, 2-(1-Cyclobutyl-1H-pyrazol-4-yl)-5-[({1-[4-(trifluoromethyl)phenyl]cyclopropyl}carbonyl)amino]benzoic acid] |
| 740 nM | O=C(O)c1cc(NC(=O)C2(c3cccc(Cl)c3F)CC2)ccc1-c1cnn(C2CCC2)c1 [Example 52, 5-({[1-(3-Chloro-2-fluorophenyl)cyclopropyl]carbonyl}amino)-2-(1-cyclobutyl-1H-pyrazol-4-yl)benzoic acid] |
| 280 nM | O=C(O)c1cc(NC(=O)C2(c3cc(F)ccc3F)CC2)ccc1-c1cnn(C2CCC2)c1 [Example 55, 2-(1-Cyclobutyl-1H-pyrazol-4-yl)-5-({[1-(2,5-difluorophenyl)cyclopropyl]carbonyl}amino)benzoic acid] |
| 85 nM | O=C(O)c1cc(NC(=O)C2(c3ccc(F)c(Cl)c3)CC2)ccc1-c1cnn(C2CCC2)c1 [Example 56, 5-({[1-(3-Chloro-4-fluorophenyl)cyclopropyl]carbonyl}amino)-2-(1-cyclobutyl-1H-pyrazol-4-yl)benzoic acid] |
